The numbers were not newly measured in patent US5330766A, “Sustained release pharmaceutical composition” (priority 1989, dated 1994), which cites them from elsewhere.

Test in series [1]: not given
This is another data set of the same source.

Counter-ions that a name gives are not always drawn. Like-named read-outs stand apart in the source and are kept apart here.

On to `C[C@@H](Cc1ccccc1)N(C)Cc1ccccc1` [Benzphetamine hydrochloride], for which the pKA (first or only value given) was 6.6.

In the case of `CN1CCCC1c1cccnc1` (stereo not shown) [Nicotine], the “SOLUBILITY (AQUEOUS), in words” value in series [1] was “soluble”.

As for `Nc1nc2c(c(=O)[nH]1)N(C=O)C(CNc1ccc(C(=O)N[C@@H](CCC(=O)O)C(=O)O)cc1)CN2` (stereo partly shown) [Leucovorin calcium], the pKA is 10.4. The “SOLUBILITY (AQUEOUS), in words” value in series [1] is recorded as “very soluble”. Where the note is “first or only value given”, the pKA is 3.1. In addition, the pKA (second value) is 4.8.

As for `CN1CCC(=C2c3ccccc3CCc3cccnc32)CC1` [Azatadine maleate], in series [1], the “SOLUBILITY (AQUEOUS), in words” value is reported as “very soluble”. Besides, the pKA (first or only value given) is 9.3.

As to `CC(C)(S)[C@@H](N)C(=O)O` [Penicillamine], the pKA (first or only value given) is on record as 1.8.

`CCNC(C)Cc1cccc(C(F)(F)F)c1` (stereo not shown) [Fenfluramine hydrochloride]: the pKA (first or only value given) is on record as 9.1.

For `CN(C)C1C(=O)C(C(N)=O)=C(O)C2(O)C(=O)C3=C(O)c4c(O)cccc4C(C)(O)C3C(O)C12` (stereo not shown) [Oxytetracycline HCl], the pKA is reported as 9.1. Moreover, the pKA (first or only value given) is 3.3. The pKA (second value) was 7.3.

For the molecule `CC1NCCOC1c1ccccc1` (stereo not shown) [Phenmetrazine hydrochloride], the pKA (first or only value given) is recorded as 8.4.

In the case of `CN(C)CCN(Cc1ccccc1)c1ccccn1` [Tripelennamine citrate], the pKA (first or only value given) is recorded as 3.9 and the pKA (second value) is 9.0.

Turning to `COc1ccc2c3c1O[C@H]1C(=O)CC[C@H]4[C@@H](C2)N(C)CC[C@]314.O=C(O)C(O)C(O)C(=O)O` [Hydrocodone bitartrate], the pKA (first or only value given) was 8.3.

For the molecule `CN(C)CCOC(c1ccc(Cl)cc1)c1ccccn1` (stereo not shown) [Carbinoxamine maleate], for the setting “first or only value given”, the pKA is on record as 8.1.

With `CC(COc1ccccc1)N(CCCl)Cc1ccccc1` (stereo not shown) [Phenoxybenzamine hydrochloride], where the note is “first or only value given”, the pKA is 4.4.

Regarding `COC(=O)C(c1ccccc1)C1CCCCN1` (stereo not shown) [Methylphenidate hydrochloride], the “SOLUBILITY (AQUEOUS), in words” value in series [1] was “freely soluble”. In addition, the pKA (first or only value given) is recorded as 8.8.

For the molecule `C[N+]12CCC(CC1)C(OC(=O)C(O)(c1ccccc1)c1ccccc1)C2` (stereo not shown) [Clidinium bromide], the “SOLUBILITY (AQUEOUS), in words” value in series [1] is on record as “soluble”.

With `CCOC(=O)C1(c2ccccc2)CCN(C)CC1` [Pethidine hydrochloride], the “SOLUBILITY (AQUEOUS), in words” value in series [1] is reported as “very soluble”.

For `OCCOCCN1CCN(C(c2ccccc2)c2ccc(Cl)cc2)CC1` (stereo not shown) [Hydroxyzine hydrochloride], the pKA by setting is: (first or only value given) 2.6; (second value) 7.0.

In the case of `CCCCCCCCCCCCCCCC(=O)OC1C(SC)OC(C(NC(=O)C2CC(CCC)CN2C)C(C)Cl)C(O)C1O` (stereo not shown) [Clindamycin Palmitate HCl], the “SOLUBILITY (AQUEOUS), in words” value in series [1] was “freely soluble”.

As for `C[C@H](CN1CCOCC1)C(C(=O)N1CCCC1)(c1ccccc1)c1ccccc1` [Dextromoramide tartrate], the pKA (first or only value given) is 7.1.

As for `C[n+]1ccccc1/C=N/O` [Pralidoxime chloride], for the setting “first or only value given”, the pKA is recorded as 8.

Consider `CCC1(C)CC(=O)NC1=O` (stereo not shown) [Ethosuximide], for which the pKA (first or only value given) is 9.0.

In the case of `CC(C)N(CCC(C(N)=O)(c1ccccc1)c1ccccn1)C(C)C` (stereo not shown) [Disopyramide phosphate], the pKA (first or only value given) was 8.4.

For `CC(C)(C)NC[C@H](O)COc1nsnc1N1CCOCC1` [Timolol maleate], the “SOLUBILITY (AQUEOUS), in words” value in series [1] is given as “freely soluble”. Further, the pKA (first or only value given) was 9.

For the molecule `NCCCCCC(=O)O` [Aminocaproic acid], the pKA runs as follows: (first or only value given) 4.43; (second value) 10.73.

As for `O=C(O)c1ccccc1O` [Choline salicylate], the “SOLUBILITY (AQUEOUS), in words” value in series [1] was “very soluble”.

On to `CCC1(CC)C(=O)NCC(C)C1=O` (stereo not shown) [Methyprylon], for which the pKA (first or only value given) was 12.

Regarding `CC(C)(S)[C@@H](N)C(=O)O` [Penicillamine HCl], the pKA is 8.0 (first or only value given, HCl) and 10.8 (second value).

As for `CN1CCC(CN2c3ccccc3Sc3ccccc32)C1` (stereo not shown) [Methdilazine HCl], the pKA (first or only value given) is given as 7.5.

As for `CCCC(CCC)C(=O)O[C@H]1C[C@H]2CC[C@@H](C1)[N+]2(C)C` [Anisotropine methylbromide], the “SOLUBILITY (AQUEOUS), in words” value in series [1] is on record as “soluble”.

In the case of `COc1cc2c(c(OC)c1OC)-c1ccc(OC)c(=O)cc1[C@@H](NC(C)=O)CC2` [Colchicine], the pKA is 1.7 (first or only value given) and 12.4 (second value).

Turning to `CO[C@@H]1[C@@H](OC(N)=O)[C@@H](O)[C@H](Oc2ccc3c(O)c(NC(=O)c4ccc(O)c(CC=C(C)C)c4)c(=O)oc3c2C)OC1(C)C` [Novobiocin Sodium], the pKA (second value) was 9.1.

Turning to `CC(N)C(O)c1ccccc1` (stereo not shown) [Phenylpropanolamine hydrochloride], for the setting “first or only value given”, the pKA is listed as 9.

For `NNC(=O)c1ccncc1` [Isoniazid], the pKA is 10.8. The pKA (second value) is given as 3.5.

Take `CC(C)[N+](C)(CCOC(=O)C1c2ccccc2Oc2ccccc21)C(C)C` [Propantheline bromide]: in series [1], the “SOLUBILITY (AQUEOUS), in words” value is recorded as “very soluble”. Moreover, under “first or only value given”, the pKA was 9.0.

As for `O=C1NC(=O)C(c2ccccc2)(c2ccccc2)N1` [Phenytoin sodium], in series [1], the “SOLUBILITY (AQUEOUS), in words” value was “soluble”.

With `Cc1onc(-c2ccccc2Cl)c1C(=O)N[C@@H]1C(=O)N2[C@@H]1SC(C)(C)[C@@H]2C(=O)O` [Cloxacillin sodium], the pKA (first or only value given) is reported as 2.7.

For the molecule `C[C@H]1[C@H](c2ccccc2)OCCN1C` [Phendimetrazine tartrate], in series [1], the “SOLUBILITY (AQUEOUS), in words” value is recorded as “freely soluble”. Under “first or only value given”, the pKA is recorded as 7.6.

In the case of `CCC(C)C1(CC)C(=O)NC(=O)NC1=O` (stereo not shown) [Butabarbital sodium], the “SOLUBILITY (AQUEOUS), in words” value in series [1] is “freely soluble”. Moreover, for the setting “first or only value given”, the pKA was 7.9.

For `CCN(CC)CC#CCOC(=O)C(O)(c1ccccc1)C1CCCCC1` (stereo not shown) [Oxybutynin hydrochloride], the pKA (first or only value given) is reported as 6.96.

On to `COc1cc(C(=O)NCc2ccc(OCCN(C)C)cc2)cc(OC)c1OC` [Trimethobenzamide hydrochloride], for which, for the setting “first or only value given”, the pKA was 8.3.

As to `COc1ccc(Cc2nccc3cc(OC)c(OC)cc23)cc1OC` [Papaverine hydrochloride], the pKA (first or only value given) is given as 6.4.

Take `C=CCC1(C(C)CCC)C(=O)NC(=O)NC1=O` (stereo not shown) [Secobarbital sodium]: the pKA (first or only value given) is on record as 7.5.
